“Also recorded” adds a separate entry of the source.

For one data set, the target named is NAMPT (Mus musculus, UniProt Q99KQ4). Briefly: NRH action in presence of NAMPT inhibitor FK866. The following applies: FK866, a NAMPT inhibitor. Type of data set: cell-based.
The nature of data set [1]: Circulating NAM, NRH and NR after intraperitoneal injection. The following applies: mouse, in vivo, ip. Type of data set: in vivo, mice. The text has this: (§1) Levels of NRH and other NAD-related metabolites in biological samples were obtained by using a cold liquid-liquid extraction using a mixture of methanol:water:chloroform in 5:3:5 (v/v), from which the polar phase was recovered for hydrophilic interaction ultra-high performance liquid chromatography mass spectrometry (UHPLC-MS) analysis. The UHPLC consisted of a binary pump, a cooled autosampler, and a column oven (DIONEX Ultimate 3000 UHPLC+ Focused, Thermo Scientific), connected to a triple quadrupole spectrometer (TSQ Vantage, Thermo Scientific) equipped with a heated electrospray ionisation (H-ESI) source. Of each sample, 2 μL were injected into the analytical column (2.1 mm×150 mm, 5 μm pore size, 200 Å HILICON iHILIC®-Fusion(P)), guarded by a pre-column (2.1 mm×20 mm, 200 Å HILICON iHILIC®-Fusion(P) Guard Kit) operating at 35° C. The mobile phase (10 mM ammonium acetate at pH 9, A, and acetonitrile, B) was pumped at 0.25 mL/min flow rate over a linear gradient of decreasing organic solvent (0.5-16 min, 90-25% B), followed by re-equilibration for a total run time of 30 min. The MS operated in positive mode at 3500 V with multiple reaction monitoring (MRM). The software Xcalibur v4.1.31.9 (Thermo Scientific) was used for instrument control, data acquisition and processing. Retention time and mass detection was confirmed by authentic standards.
The above results prompted us to test whether NRH could act as an effective NAD+ precursor in vivo. For this, we first intraperitoneally (IP) injected mice with either NR or NRH (500 mg/kg).

Data set [2] deals with equilibrative nucleoside transporters (ENTs). Put plainly: NRH action as NAD+ precursor under ENT blockage with NBTI. The class given is cell-based. The following applies: in the presence of S-(4-nitrobenzyl)-6-thioinosine (NBTI). From the text:
In order to understand the exact path by which NRH synthesizes NAD+, we initially evaluated whether NRH, could be transported into the cell by equilibrative nucleoside transporters (ENTs).

Data set [3] relates to cisplatin-induced acute kidney injury. The class given is in vivo, C57BI/6NTac mice. As for the experimental part:
Simultaneously, mice were intraperitoneally injected with PBS (as vehicle) or NRH (250 mg/kg). PBS or NRH was injected at 24, 48 and 72 h after the initiation of the experiment. Kidneys of the mice were harvested, 4 h after the last injection, and NAD+ levels were analyzed in the kidney through mass spectrometry. All results are expressed as mean +/−SEM of n=5 mice per group. * indicates statistical difference at p<0.05 vs. vs. respective saline-treated mice
FIG. 7. […] Simultaneously, mice were intraperitoneally injected or not with PBS (as vehicle) or NRH (250 mg/kg) at 24, 48 and 72 h after the initiation of the experiment. Mice were sacrificed 4 h after the last injection, and plasma was collected to measure blood urea nitrogen levels. All results are expressed as mean +/−SEM of n=5 mice per group. * indicates statistical difference at p<0.05 vs. vs. respective saline-treated mice
Simultaneously, mice were intraperitoneally injected or not with PBS (as vehicle) or NRH (250 mg/kg). Urine was collected 24 h later to evaluate urea levels by NMR. All results are expressed as mean +/−SEM of n=5 mice per group. * indicates statistical difference at p<0.05 vs. vs. respective saline-treated mice.
Simultaneously, mice were intraperitoneally injected or not with PBS (as vehicle) or NRH (250 mg/kg). PBS or NRH were then injected at 24, 48 and 72 h after the initiation of the experiment. Mice were sacrificed 4 h after the last injection, and kidneys were fixed in OCT and used for immunohistochemistry against cleaved caspase 3. The cleaved caspase 3 staining was then quantified against the total area, using 10 images per mouse, 5 mice per group. All results are expressed as mean +/−SEM. * indicates statistical difference at p<0.05 vs. vs. respective saline-treated mice.
Simultaneously, mice were intraperitoneally injected or not with PBS (as vehicle) or NRH (250 mg/kg). PBS or NRH were then injected at 24, 48 and 72 h after the initiation of the experiment. 4 h after the last injection, and kidneys were obtained to isolate mRNA and analyze by qPCR makers of renal dysfunction (TGF-b1), glomerular dysfunction (fibronectin), apoptosis (BAX) and ER stress (BIP). All values are expressed as mean +/−SEM of n=4 mice per group. * indicates statistical difference at p<0.05 vs. respective vehicle-injected mice. # indicates statistical difference at p<0.05 vs. the respective mice in the control group.
Kidneys were harvested 4 hrs after the last NRH injection.

For a further data set, the target named is T1, adenosine kinase (AK) (Mus musculus, UniProt P55264).
T1 construct: endogenous in cells; host or cells: AML12 cells
T1 sequence (P55264 whole entry): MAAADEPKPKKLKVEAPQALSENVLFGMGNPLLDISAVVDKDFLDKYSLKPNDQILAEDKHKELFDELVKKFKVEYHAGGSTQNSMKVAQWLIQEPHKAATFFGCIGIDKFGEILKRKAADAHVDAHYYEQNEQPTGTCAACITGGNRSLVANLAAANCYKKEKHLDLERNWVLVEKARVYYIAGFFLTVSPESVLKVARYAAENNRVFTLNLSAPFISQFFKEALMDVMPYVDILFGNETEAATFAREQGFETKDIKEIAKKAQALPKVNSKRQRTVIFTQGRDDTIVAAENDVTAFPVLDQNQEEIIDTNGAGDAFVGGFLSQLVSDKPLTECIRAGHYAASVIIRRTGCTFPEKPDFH
Briefly: NRH-induced NAD+ synthesis under adenosine kinase inhibition (5-IT, ABT-702). Type of data set: cell-based. As for the experimental part: AML12 cells were treated with an adenosine kinase inhibitor (5-IT; […]) for 1 hour prior to NRH treatment at the doses indicated. Then, 1 hour later, acidic extracts were obtained to measure NAD^+ levels. All values in the figure are expressed as mean +/−SEM of 3 independent experiments. * indicates statistical difference at p<0.05 vs. the respective vehicle treated group.
Considering the molecular structure of NRH, we reasoned that an alternative nucleoside kinase could be responsible for the phosphorylation of NRH. Confirming this expectation, the adenosine kinase (AK) inhibitor 5-iodotubercidin (5-IT) fully ablated the action of NRH. […] Metabolomic analyses further confirmed that upon inhibition of AK, the generation of NMNH, NADH and NAD+ was fully blunted, even if NRH was effectively entering the cell.

Another data set deals with C2C12 myotubes. Put plainly: NAD+ levels in C2C12 myotubes after NRH treatment. The class given is cell-based. Here is the method: (§2) The ability of NRH to potently increase NAD+ was tested as well in other cell type models.
Data set [4] can be described thus: Stability of NRH or NR spiked in isolated mouse plasma. The class given is in vitro ADME.
Excerpt: as §1
NR degradation to NAM has been proposed as a limitation for its pharmacological efficacy. To evaluate whether NRH was also susceptible to degradation to NAM, we spiked NRH or NR in isolated mouse plasma. […] We also tested the stability of NRH in other matrixes.

The next data set has as its system INS1-cells. Put plainly: NAD+ levels in INS1-cells after NRH treatment. Type of data set: cell-based. As for the experimental part: as §2
Setting [5] is: cisplatin 20 mg/kg, NRH 250 mg/kg.
The mark [6] stands for this setting: kidney qPCR, cisplatin plus NRH.

Chain of NAMPT (Q99KQ4 whole entry): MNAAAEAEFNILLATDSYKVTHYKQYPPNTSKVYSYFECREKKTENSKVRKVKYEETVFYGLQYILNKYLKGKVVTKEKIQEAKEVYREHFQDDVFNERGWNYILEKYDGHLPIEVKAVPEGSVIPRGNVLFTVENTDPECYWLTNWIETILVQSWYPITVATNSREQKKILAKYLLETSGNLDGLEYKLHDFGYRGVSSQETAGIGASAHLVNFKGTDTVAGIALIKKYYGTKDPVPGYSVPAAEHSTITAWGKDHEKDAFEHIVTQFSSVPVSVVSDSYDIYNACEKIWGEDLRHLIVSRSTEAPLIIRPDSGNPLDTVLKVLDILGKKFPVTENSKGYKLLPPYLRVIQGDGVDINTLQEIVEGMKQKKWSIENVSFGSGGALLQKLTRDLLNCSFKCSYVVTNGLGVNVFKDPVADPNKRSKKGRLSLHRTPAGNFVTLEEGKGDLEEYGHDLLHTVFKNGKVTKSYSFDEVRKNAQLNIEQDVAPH

With `NC(=O)C1=CN([C@@H]2O[C@H](CO)[C@@H](O)[C@H]2O)C=CC1` [NRH, dihydro-1-beta-D-ribofuranosyl-3-pyridinecarboxamide], the “dependence of NRH action on NAMPT” value on NAMPT is “NAMPT-independent”. In addition, in data set [1], the “NR in circulation after NRH treatment” value is on record as “detectable in circulation after NRH treatment at much higher levels than those detected after NR injection itself” and the NRH in circulation entry is listed as “detectable in circulation”. The “NAM levels in circulation” value in data set [1] (500 mg/kg) was “only a very mild increase”. Further, the “capacity as extracellular NAD+ precursor under ENT blockage” value in data set [2] is recorded as “largely lost its capacity as an extracellular NAD+ precursor; also recorded: a substantial action of NRH remained”. The “NAD+ levels in kidney above control” value in data set [3] (4 h after NRH supplementation) is recorded as “did not observe higher NAD^+ levels”. The “renal NADH levels” value in data set [3] (cisplatin 20 mg/kg IP, NRH 250 mg/kg IP at 0, 24, 48, 72 h, kidneys 4 h after last injection) is “prevented the drop in renal NAD^+ and NADH levels”. Further, in data set [3] (setting [5]), the “Me2PY and Me4PY levels in urine” value is recorded as “further increased”; the “methyl-NAM levels in kidney” value is listed as “further increased methyl-NAM levels in kidney”. Also, the PARP activity entry in data set [3] (cisplatin mice treated with NRH) is reported as “higher”. Also, in data set [3] (histology, cisplatin 20 mg/kg, NRH 250 mg/kg), the “kidney structure (tubular necrosis, glomeruli dilatation, inflammation, cast formation)” value is given as “largely prevented”. Also, the “presence of kidney casts” value in data set [3] (histology, cisplatin plus NRH) is “major decrease in the presence of kidney casts”. Further, in data set [3] (kidney immunohistochemistry, cisplatin plus NRH (FIG. 9)), the “renal cell apoptosis (cleaved caspase 3 staining)” value is “protects against cisplatin-induced renal cell apoptosis”. In data set [3] (setting [6]), the “BAX mRNA (marker of apoptosis)” value is recorded as “prevented cisplatin-induced increases”, the “BIP mRNA (marker of ER stress)” value was “prevented cisplatin-induced increases”, the TGF-β1 expression entry is “prevent the increase in TGF-β1 expression” and the “fibronectin mRNA (marker of glomerular dysfunction)” value was “prevented cisplatin-induced increases”. In addition, at adenosine kinase (AK) (5-IT treatment), the “formation of NR and NMN after NRH treatment with 5-IT” value was “prevented the formation of NR and NMN”. Also, on adenosine kinase (AK) (AML12 cells, 5-IT 10 mM for 1 hour prior to NRH, NAD+ 1 hour later), the “action of NRH on NAD+ in presence of AK inhibitor 5-iodotubercidin (5-IT)” value was “fully ablated; also recorded: adenosine kinase dependent path”. Also, the “generation of NMNH, NADH and NAD+ upon inhibition of AK” value at adenosine kinase (AK) (metabolomic analyses) was “fully blunted”. Also, the “NRH-mediated NAD+ synthesis in presence of AK inhibitor ABT-702” value at adenosine kinase (AK) (second, structurally different AK inhibitor) is given as “role of AK in NRH-mediated NAD+ synthesis was confirmed”. Moreover, the “NAD+ levels” value in the data set on C2C12 myotubes is on record as “highly elevated NAD+ levels”. Moreover, the “NR production on incubation in isolated plasma” value in data set [4] was “did not lead to NR production”. Besides, the “NAD+ levels” value in the data set with INS1-cells is reported as “highly elevated NAD+ levels”.
